Holding throughout (assay type): cell-based
The target in assay [1] is T1, GIP receptor (Homo sapiens, UniProt P48546).
T1 sequence (P48546 22-466): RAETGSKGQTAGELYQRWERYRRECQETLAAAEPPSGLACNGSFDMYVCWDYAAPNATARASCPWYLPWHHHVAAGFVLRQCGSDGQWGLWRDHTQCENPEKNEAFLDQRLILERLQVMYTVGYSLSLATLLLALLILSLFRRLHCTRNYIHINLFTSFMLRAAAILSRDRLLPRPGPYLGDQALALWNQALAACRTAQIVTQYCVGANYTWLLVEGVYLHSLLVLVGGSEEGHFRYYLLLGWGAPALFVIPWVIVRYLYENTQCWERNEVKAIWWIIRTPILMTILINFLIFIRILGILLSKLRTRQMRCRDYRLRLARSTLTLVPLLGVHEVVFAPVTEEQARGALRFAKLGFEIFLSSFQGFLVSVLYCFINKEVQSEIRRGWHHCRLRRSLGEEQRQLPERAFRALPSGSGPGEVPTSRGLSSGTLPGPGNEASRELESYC
Kind of assay: PathHunter β-arrestin assay, GIP receptor. Also noted: host or cells: PathHunter CHO-K1 GIPR β-Arrestin Cell Line. The conditions noted are these: β-arrestin-2 recruitment, PathHunter CHO-K1 GIPR β-Arrestin Cell Line, 90 min at 37° C.; normalized to GIP; read-out: GIPR β Arrestin EC50.

Assay [2] has as its target T1, GIP receptor. Kind of assay: HitHunter cAMP assay, GIP receptor. The conditions noted are these: for EC50: CHO cells stably expressing GIP receptor, cAMP accumulation, 30 min, read-out: EC50 GIP-1R; for Emax: CHO cells, cAMP, normalized to maximum signal from GIP (high) and DMSO (low), read-out: Emax GIP-1R.
In assay [3] the target is T2, GLP-1 receptor (Homo sapiens, UniProt P43220). Nature of the assay: HitHunter cAMP assay, GLP-1 receptor. The conditions noted are these: for EC50: CHO cells stably expressing human GLP-1 receptor, cAMP accumulation, 30 min, read-out: EC50 GLP-1R; for Emax: CHO cells, cAMP, normalized to maximum signal from GLP-1 (high) and DMSO (low), read-out: Emax GLP-1R.
T2 sequence (P43220 24-463): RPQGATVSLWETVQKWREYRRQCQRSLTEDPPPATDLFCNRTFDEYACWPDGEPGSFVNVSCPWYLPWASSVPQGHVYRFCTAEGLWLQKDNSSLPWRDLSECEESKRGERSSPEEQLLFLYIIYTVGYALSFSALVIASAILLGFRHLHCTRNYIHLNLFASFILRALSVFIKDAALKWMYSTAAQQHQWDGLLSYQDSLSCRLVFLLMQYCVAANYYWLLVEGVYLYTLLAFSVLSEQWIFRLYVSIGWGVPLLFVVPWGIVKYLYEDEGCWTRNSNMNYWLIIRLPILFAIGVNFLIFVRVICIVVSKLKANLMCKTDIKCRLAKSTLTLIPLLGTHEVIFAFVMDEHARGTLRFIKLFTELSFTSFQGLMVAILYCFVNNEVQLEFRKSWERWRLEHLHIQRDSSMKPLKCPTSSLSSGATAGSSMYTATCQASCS
The target in assay [4] is T2, GLP-1 receptor. Nature of the assay: PathHunter β-arrestin assay, GLP-1 receptor. Also noted: host or cells: PathHunter CHO-K1 GLP1R β-Arrestin Cell Line. The conditions noted are these: β-arrestin-2 recruitment, PathHunter CHO-K1 GLP1R β-Arrestin Cell Line, 90 min at 37° C.; normalized to GLP-1; read-out: GLP-1R β Arrestin EC50.

The source of these data is US12281149B2, “Modulators of G-protein coupled receptors” (priority 2021, dated 2025).

The structures appear in SMILES notation. *1 amine or outer side, *2 acyl side, *3 side chain or, on linkers, in order; H or OH if unused. Where a SMILES comes first, the peptide text is derived from it. Side-chain parts run from the residue outwards. [ ]: non-standard residue; d: D form. The star is where a group is joined. Isobutyryl(2-(3-CN-5-F-Ph)) = CC(C)(C(=O)*)c1cc(F)cc(C#N)c1; C20 diacid = O=C(O)CCCCCCCCCCCCCCCCCCC(=O)*; αMePhe(2-F) = C[C@](N)(Cc1ccccc1F)C(=O)O; γGlu = O=C(O)[C@H](CCC(=O)[*:2])N[*:1]; X27 = O=C1CC(C(=O)*)(c2ccccc2)CN1; X58 = Cc1cc(F)cc(C(C)(C)C(=O)*)c1; X33 = CCC(CC)(C(=O)*)c1ccccc1; AEEA = NCCOCCOCC(=O)O; Aib = CC(C)(N)C(=O)O; CO = O=C([*:1])[*:2]; βAla = NCCC(=O)O; NHPr = CCCN*

On to `CC[C@H](C)[C@H](NC(=O)[C@H](CC(C)C)NC(=O)[C@H](Cc1c[nH]c2ccccc12)NC(=O)[C@H](CCC(N)=O)NC(=O)[C@@H](NC(=O)[C@H](Cc1ccccc1)NC(=O)[C@H](C)NC(=O)[C@H](CCCCNC(=O)COCCOCCNC(=O)COCCOCCNC(=O)CC[C@H](NC(=O)CCCCCCCCCCCCCCCCCCC(=O)O)C(=O)O)NC(=O)[C@H](CCC(N)=O)NC(=O)[C@H](C)NC(=O)[C@@H](NC(=O)[C@H](CCCCN)NC(=O)[C@H](CC(=O)O)NC(=O)[C@H](CC(C)C)NC(=O)C(C)(C)NC(=O)[C@@H](NC(=O)[C@H](CO)NC(=O)[C@H](Cc1ccc(O)cc1)NC(=O)[C@H](CC(=O)O)NC(=O)[C@H](CO)NC(=O)[C@@H](NC(=O)[C@H](Cc1ccccc1)NC(=O)[C@@H](NC(=O)CNC(=O)[C@H](CCC(=O)O)NC(=O)CCNC(=O)C(CC)(CC)c1ccccc1)[C@@H](C)O)[C@@H](C)O)[C@@H](C)CC)[C@@H](C)CC)C(C)C)C(=O)N[C@@H](C)C(=O)NCC(=O)NCC(=O)N1CCC[C@H]1C(=O)N[C@@H](CO)C(=O)N[C@@H](CO)C(=O)NCC(=O)N[C@@H](C)C(=O)N1CCC[C@H]1C(=O)N1CCC[C@H]1C(=O)N1CCC[C@H]1C(=O)N[C@@H](CO)C(N)=O` [Compound 218] ({X33-βAla}-EGTFTSDYSI[Aib]LDKIAQK([AEEA-AEEA-γGlu-C20 diacid])AFVQWLIAGGPSSGAPPPS-NH2), for which the EC50 is less than 1000 nM at GIP receptor [1], 0.1 to 1 nM at GIP receptor [2], 0.1 to 1 nM on GLP-1 receptor [3] and more than 1000 nM on GLP-1 receptor [4]. In addition, the Emax at GIP receptor [2] amounted to 100%; on GLP-1 receptor [3], 103%.
In the case of `CC[C@H](C)[C@H](NC(=O)[C@H](CO)NC(=O)[C@H](CCCCNC(=O)COCCOCCNC(=O)COCCOCCNC(=O)CC[C@H](NC(=O)CCCCCCCCCCCCCCCCCCC(=O)O)C(=O)O)NC(=O)[C@H](CC(=O)O)NC(=O)[C@H](CO)NC(=O)[C@@H](NC(=O)[C@](C)(Cc1ccccc1F)NC(=O)[C@@H](NC(=O)CNC(=O)[C@H](CCC(=O)O)NC(=O)CCNC(=O)C1(c2ccccc2)CNC(=O)C1)[C@@H](C)O)[C@@H](C)O)C(=O)N[C@@H](Cc1ccc(O)cc1)C(=O)N[C@@H](CC(C)C)C(=O)N[C@@H](CC(=O)O)C(=O)N[C@@H](CCCCN)C(=O)N[C@@H](CCC(N)=O)C(=O)N[C@@H](C)C(=O)N[C@@H](C)C(=O)NC(C)(C)C(=O)N[C@@H](CCC(=O)O)C(=O)N[C@@H](Cc1ccccc1)C(=O)N[C@H](C(=O)N[C@@H](CC(N)=O)C(=O)N[C@@H](Cc1c[nH]c2ccccc12)C(=O)N[C@@H](CC(C)C)C(=O)N[C@@H](CC(C)C)C(=O)N[C@@H](C)C(=O)NCC(=O)NCC(=O)N1CCC[C@H]1C(=O)N[C@@H](CO)C(=O)N[C@@H](CO)C(=O)NCC(=O)N[C@@H](C)C(=O)N1CCC[C@H]1C(=O)N1CCC[C@H]1C(=O)N1CCC[C@H]1C(=O)N[C@@H](CO)C(N)=O)C(C)C` (stereo partly drawn) [Compound 138] ({X27-βAla}-EGT[αMePhe(2-F)]TSDK([AEEA-AEEA-γGlu-C20 diacid])SIYLDKQAA[Aib]EFVNWLLAGGPSSGAPPPS-NH2), the half-maximal effective concentration (EC50) is less than 1000 nM at GIP receptor [1], 0.1 to 1 nM on GIP receptor [2], less than 0.1 nM on GLP-1 receptor [3] and less than 1000 nM at GLP-1 receptor [4]. The Emax on GIP receptor [2] and on GLP-1 receptor [3] was 100% in each case.
In the case of `CC[C@H](C)[C@H](NC(=O)[C@H](CC(C)C)NC(=O)[C@H](Cc1c[nH]c2ccccc12)NC(=O)[C@H](CCC(N)=O)NC(=O)[C@@H](NC(=O)[C@H](Cc1ccccc1)NC(=O)[C@H](C)NC(=O)[C@H](CCCCNC(=O)COCCOCCNC(=O)COCCOCCNC(=O)CC[C@H](NC(=O)CCCCCCCCCCCCCCCCCCC(=O)O)C(=O)O)NC(=O)[C@H](CCC(N)=O)NC(=O)[C@H](C)NC(=O)[C@@H](NC(=O)[C@H](CCCCN)NC(=O)[C@H](CC(=O)O)NC(=O)[C@H](CC(C)C)NC(=O)C(C)(C)NC(=O)[C@@H](NC(=O)[C@H](CO)NC(=O)[C@H](Cc1ccc(O)cc1)NC(=O)[C@H](CC(=O)O)NC(=O)[C@H](CO)NC(=O)[C@@H](NC(=O)[C@H](Cc1ccccc1)NC(=O)[C@@H](NC(=O)CNC(=O)[C@H](CC(=O)O)NC(=O)CCNC(=O)C(C)(C)c1cc(F)cc(C#N)c1)[C@@H](C)O)[C@@H](C)O)[C@@H](C)CC)[C@@H](C)CC)C(C)C)C(=O)N[C@@H](C)C(=O)NCC(=O)NCC(=O)N1CCC[C@H]1C(=O)N[C@@H](CO)C(=O)N[C@@H](CO)C(=O)NCC(=O)N[C@@H](C)C(=O)N1CCC[C@H]1C(=O)N1CCC[C@H]1C(=O)N1CCC[C@H]1C(=O)N[C@@H](CO)C(N)=O` [Compound 108] ({Isobutyryl(2-(3-CN-5-F-Ph))-βAla}-DGTFTSDYSI[Aib]LDKIAQK([AEEA-AEEA-γGlu-C20 diacid])AFVQWLIAGGPSSGAPPPS-NH2), the EC50 is less than 1000 nM on GIP receptor [1], 1 to 10 nM on GIP receptor [2], less than 0.1 nM at GLP-1 receptor [3] and more than 1000 nM at GLP-1 receptor [4]. For the same compound, the Emax came to 95% at GIP receptor [2] and 93% on GLP-1 receptor [3].
Regarding `CC[C@H](C)[C@H](NC(=O)[C@H](CC(C)C)NC(=O)[C@H](Cc1c[nH]c2ccccc12)NC(=O)[C@H](CCC(N)=O)NC(=O)[C@@H](NC(=O)[C@H](Cc1ccccc1)NC(=O)[C@H](C)NC(=O)[C@H](CCCCNC(=O)COCCOCCNC(=O)COCCOCCNC(=O)CC[C@H](NC(=O)CCCCCCCCCCCCCCCCCCC(=O)O)C(=O)O)NC(=O)[C@H](CCC(N)=O)NC(=O)[C@H](C)NC(=O)[C@@H](NC(=O)[C@H](CCCCN)NC(=O)[C@H](CC(=O)O)NC(=O)[C@H](CC(C)C)NC(=O)C(C)(C)NC(=O)[C@@H](NC(=O)[C@H](CO)NC(=O)[C@H](Cc1ccc(O)cc1)NC(=O)[C@H](CC(=O)O)NC(=O)[C@H](CO)NC(=O)[C@@H](NC(=O)[C@H](Cc1ccccc1)NC(=O)[C@@H](NC(=O)CNC(=O)[C@H](CCC(=O)O)NC(=O)CCNC(=O)C(C)(C)c1cc(C)cc(F)c1)[C@@H](C)O)[C@@H](C)O)[C@@H](C)CC)[C@@H](C)CC)C(C)C)C(=O)N[C@@H](C)C(=O)NCC(=O)NCC(=O)N1CCC[C@H]1C(=O)N[C@@H](CO)C(=O)N[C@@H](CO)C(=O)NCC(=O)N[C@@H](C)C(=O)N1CCC[C@H]1C(=O)N1CCC[C@H]1C(=O)N1CCC[C@H]1C(=O)N[C@@H](CO)C(N)=O` [Compound 144] ({X58-βAla}-EGTFTSDYSI[Aib]LDKIAQK([AEEA-AEEA-γGlu-C20 diacid])AFVQWLIAGGPSSGAPPPS-NH2), the EC50 is more than 1000 nM on GIP receptor [1], 1 to 10 nM on GIP receptor [2], less than 0.1 nM on GLP-1 receptor [3] and more than 1000 nM on GLP-1 receptor [4]. The Emax was 103% on GIP receptor [2] and 99% at GLP-1 receptor [3].
For `CCCNC(=O)NC(C)(C)C(=O)NCCC(=O)N[C@@H](CCC(=O)O)C(=O)NCC(=O)N[C@H](C(=O)N[C@@H](Cc1ccccc1)C(=O)N[C@H](C(=O)N[C@@H](CO)C(=O)N[C@@H](CC(=O)O)C(=O)N[C@@H](Cc1ccc(O)cc1)C(=O)N[C@@H](CO)C(=O)N[C@H](C(=O)NC(C)(C)C(=O)N[C@@H](CC(C)C)C(=O)N[C@@H](CC(=O)O)C(=O)N[C@@H](CCCCN)C(=O)N[C@H](C(=O)N[C@@H](C)C(=O)N[C@@H](CCC(N)=O)C(=O)N[C@@H](CCCCNC(=O)COCCOCCNC(=O)COCCOCCNC(=O)CC[C@H](NC(=O)CCCCCCCCCCCCCCCCCCC(=O)O)C(=O)O)C(=O)N[C@@H](C)C(=O)N[C@@H](Cc1ccccc1)C(=O)N[C@H](C(=O)N[C@@H](CCC(N)=O)C(=O)N[C@@H](Cc1c[nH]c2ccccc12)C(=O)N[C@@H](CC(C)C)C(=O)N[C@H](C(=O)N[C@@H](C)C(=O)NCC(=O)NCC(=O)N1CCC[C@H]1C(=O)N[C@@H](CO)C(=O)N[C@@H](CO)C(=O)NCC(=O)N[C@@H](C)C(=O)N1CCC[C@H]1C(=O)N1CCC[C@H]1C(=O)N1CCC[C@H]1C(=O)N[C@@H](CO)C(N)=O)[C@@H](C)CC)C(C)C)[C@@H](C)CC)[C@@H](C)CC)[C@@H](C)O)[C@@H](C)O` [Compound 281] ({NHPr-CO}-[Aib][βAla]EGTFTSDYSI[Aib]LDKIAQK([AEEA-AEEA-γGlu-C20 diacid])AFVQWLIAGGPSSGAPPPS-NH2), the EC50 is more than 1000 nM at GIP receptor [1], 1 to 10 nM at GIP receptor [2], 0.1 to 1 nM on GLP-1 receptor [3] and more than 1000 nM on GLP-1 receptor [4]. In addition, the Emax on GIP receptor [2] is 108%; on GLP-1 receptor [3], 95%.
